# Reference: US10112937B2, “P2X7 modulators and methods of use” (Janssen Pharmaceutica NV, priority 2013, dated 2018)
# Biological target: human P2X7 (Homo sapiens (Human), UniProt Q99572)
# Assay: P2X7 antagonism in human PBMCs (IL-1β release after LPS + Bz-ATP, ELISA)
# Assay type: cell-based
# Conditions: 10 μM test compound, human PBMCs, LPS + Bz-ATP
# Sequence of human P2X7 (Q99572 whole entry): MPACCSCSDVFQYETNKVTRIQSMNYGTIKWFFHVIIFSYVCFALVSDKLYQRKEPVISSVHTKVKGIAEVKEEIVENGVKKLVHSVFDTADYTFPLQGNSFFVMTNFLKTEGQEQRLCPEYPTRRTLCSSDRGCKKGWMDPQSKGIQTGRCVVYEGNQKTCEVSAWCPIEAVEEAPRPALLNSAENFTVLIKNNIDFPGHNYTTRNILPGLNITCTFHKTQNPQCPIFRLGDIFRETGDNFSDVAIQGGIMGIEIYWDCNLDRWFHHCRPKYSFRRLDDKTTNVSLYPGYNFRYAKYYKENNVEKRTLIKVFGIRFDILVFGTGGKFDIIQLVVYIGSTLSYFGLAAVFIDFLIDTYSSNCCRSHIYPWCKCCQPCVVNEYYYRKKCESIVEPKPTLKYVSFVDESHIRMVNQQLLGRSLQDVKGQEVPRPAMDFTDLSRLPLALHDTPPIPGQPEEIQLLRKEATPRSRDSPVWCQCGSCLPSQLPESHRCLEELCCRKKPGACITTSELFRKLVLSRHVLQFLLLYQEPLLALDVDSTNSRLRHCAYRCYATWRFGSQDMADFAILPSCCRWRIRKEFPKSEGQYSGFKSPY
row,SMILES,PBMC 10 μM (% control)
1,"CCn1ccc(-n2nnc3c2C[C@H](C)N(C(=O)c2cccc(C(F)(F)F)c2Cl)C3)n1 [Example 404, (S)-(2-chloro-3-(trifluoromethyl)phenyl)(1-(1-ethyl-1H-pyrazol-3-yl)-6-methyl-6,7-dihydro-1H-[1,2,3]triazolo[4,5-c]pyridin-5(4H)-yl)methanone]",−3.1 % control
2,"C[C@H]1Cc2c(nnn2-c2ncc(O)cn2)CN1C(=O)c1ccnc(C(F)(F)F)c1F [Example 429, (S)-(3-fluoro-2-(trifluoromethyl)pyridin-4-yl)(1-(5-hydroxypyrimidin-2-yl)-6-methyl-6,7-dihydro-1H-[1,2,3]triazolo[4,5-c]pyridin-5(4H)-yl)methanone]",2.3 % control

# Same assay, conditions: human PBMCs, test compound 1 μM
row,SMILES,PBMC 1 μM (% control)
1,"C[C@H]1c2nnn(-c3cnccn3)c2CCN1C(=O)c1cccc(C(F)(F)F)c1Cl (single isomer, unassigned) [Example 75, (4S*)-5-{[2-Chloro-3-(trifluoromethyl)phenyl]carbonyl}-4-methyl-1-pyrazin-2-yl-4,5,6,7-tetrahydro-1H-[1,2,3]triazolo[4,5-c]pyridine]",5.2 % control
2,"O=C(c1cccc(C(F)(F)F)c1Cl)N1CCc2c(-c3ccccc3)n[nH]c2C1 [Example 99, (2-Chloro-3-(trifluoromethyl)phenyl)(3-phenyl-4,5-dihydro-1H-pyrazolo[3,4-c]pyridin-6(7H)-yl)methanone]",7.0 % control

# Same assay, conditions: human PBMCs, test compound 10 μM
row,SMILES,PBMC 10 μM (% control)
1,"CC1Cc2c(nnn2-c2ccc(F)cc2)C(C)N1C(=O)c1cccc(C(F)(F)F)c1Cl (stereo not shown) [Example 243, (2-Chloro-3-(trifluoromethyl)phenyl)(1-(4-fluorophenyl)-4,6-dimethyl-6,7-dihydro-1H-[1,2,3]triazolo[4,5-c]pyridin-5(4H)-yl)methanone]",1.0 % control
2,"O=C(c1cccc(Cl)c1Cl)N1CCc2c(nc(C(F)(F)F)n2-c2ccccc2)C1 [Example 58, 5-[(2,3-Dichlorophenyl)carbonyl]-1-phenyl-2-(trifluoromethyl)-4,5,6,7-tetrahydro-1H-imidazo[4,5-c]pyridine]",−2.0 % control
3,"CCOc1cccnc1-n1nnc2c1CCN(C(=O)c1cccc(C(F)(F)F)c1Cl)C2C (stereo not shown) [Example 258, (2-Chloro-3-(trifluoromethyl)phenyl)(1-(3-ethoxypyridin-2-yl)-4-methyl-6,7-dihydro-1H-[1,2,3]triazolo[4,5-c]pyridin-5(4H)-yl)methanone]",−3.2 % control
4,"C[C@H]1Cc2c(nnn2-c2ncc(F)cn2)CN1C(=O)c1cc(C(F)(F)F)ccc1F (single isomer, unassigned) [Example 232, (S*)-(2-fluoro-5-(trifluoromethyl)phenyl)(1-(5-fluoropyrimidin-2-yl)-6-methyl-6,7-dihydro-1H-[1,2,3]triazolo[4,5-c]pyridin-5(4H)-yl)methanone]",7.5 % control
5,"C[C@@H]1Cc2c(nnn2-c2ccn[nH]2)[C@@H](C)N1C(=O)c1cccc(C(F)(F)F)c1Cl [Example 296, (2-chloro-3-(trifluoromethyl)phenyl)((4R,6R)-4,6-dimethyl-1-(1H-pyrazol-5-yl)-6,7-dihydro-1H-[1,2,3]triazolo[4,5-c]pyridin-5(4H)-yl)methanone]",3.6 % control
6,"O=C(c1cccc(C(F)(F)F)c1F)N1CCc2c(nnn2-c2cnccn2)C1 [Example 69, 5-{[2-Fluoro-3-(trifluoromethyl)phenyl]carbonyl}-1-pyrazin-2-yl-4,5,6,7-tetrahydro-1H-[1,2,3]triazolo[4,5-c]pyridine]",6.8 % control
7,"CC1CN(C(=O)c2cccc(C(F)(F)F)c2Cl)Cc2nnn(-c3ccccc3)c21 (stereo not shown) [Example 245, (2-Chloro-3-(trifluoromethyl)phenyl)(7-methyl-1-phenyl-6,7-dihydro-1H-[1,2,3]triazolo[4,5-c]pyridin-5(4H)-yl)methanone]",−7.3 % control
8,"Cc1ccnc(-n2nnc3c2CCN(C(=O)c2cccc(C(F)(F)F)c2Cl)[C@H]3C)c1 (single isomer, unassigned) [Example 186, (S*)-(2-chloro-3-(trifluoromethyl)phenyl)(4-methyl-1-(4-methylpyridin-2-yl)-6,7-dihydro-1H-[1,2,3]triazolo[4,5-c]pyridin-5(4H)-yl)methanone]",−0.5 % control
9,"C[C@H]1c2nnn(-c3cnccn3)c2CCN1C(=O)c1cccc(C(F)(F)F)c1Cl (single isomer, unassigned) [Example 75, (4S*)-5-{[2-Chloro-3-(trifluoromethyl)phenyl]carbonyl}-4-methyl-1-pyrazin-2-yl-4,5,6,7-tetrahydro-1H-[1,2,3]triazolo[4,5-c]pyridine]",−0.3 % control
10,"C[C@@H]1Cc2c(nnn2-c2ccn[nH]2)CN1C(=O)c1cccc(C(F)(F)F)c1Cl (single isomer, unassigned) [Example 350, (R*)-(2-chloro-3-(trifluoromethyl)phenyl)(6-methyl-1-(1H-pyrazol-5-yl)-6,7-dihydro-1H-[1,2,3]triazolo[4,5-c]pyridin-5(4H)-yl)methanone]",16.2 % control
11,"C[C@@H]1c2nnn(-c3cnccn3)c2CCN1C(=O)c1ccc(F)c(Cl)c1Cl (single isomer, unassigned) [Example 143, (R*)-(2,3-Dichloro-4-fluorophenyl)(4-methyl-1-(pyrazin-2-yl)-6,7-dihydro-1H-[1,2,3]triazolo[4,5-c]pyridin-5(4H)-yl)methanone]",58.0 % control
12,"Cc1cc(-n2nnc3c2CCN(C(=O)c2ccc(Cl)c(C(F)(F)F)c2)[C@H]3C)ncc1F (single isomer, unassigned) [Example 366, (S*)-(4-chloro-3-(trifluoromethyl)phenyl)(1-(5-fluoro-4-methylpyridin-2-yl)-4-methyl-6,7-dihydro-1H-[1,2,3]triazolo[4,5-c]pyridin-5(4H)-yl)methanone]",2.0 % control
13,"Cc1ccc(-n2nnc3c2CCN(C(=O)c2cccc(C(F)(F)F)c2Cl)C3C)nc1 (stereo not shown) [Example 301, (2-chloro-3-(trifluoromethyl)phenyl)(4-methyl-1-(5-methylpyridin-2-yl)-6,7-dihydro-1H-[1,2,3]triazolo[4,5-c]pyridin-5(4H)-yl)methanone]",−2.2 % control
14,"Cc1ccnc(-n2nnc3c2CCN(C(=O)c2cccc(Cl)c2Cl)[C@@H]3C)n1 (single isomer, unassigned) [Example 391, (R*)-(2,3-dichlorophenyl)(4-methyl-1-(4-methylpyrimidin-2-yl)-6,7-dihydro-1H-[1,2,3]triazolo[4,5-c]pyridin-5(4H)-yl)methanone]",112.1 % control
15,"Cc1ccnc(-n2nnc3c2CCN(C(=O)c2cccc(Cl)c2Cl)[C@@H]3C)c1 (single isomer, unassigned) [Example 394, (R*)-(2,3-dichlorophenyl)(4-methyl-1-(4-methylpyridin-2-yl)-6,7-dihydro-1H-[1,2,3]triazolo[4,5-c]pyridin-5(4H)-yl)methanone]",6.2 % control
16,"CC1Cc2c(nnn2-c2ccccn2)CN1C(=O)c1ccc(F)c(Cl)c1Cl (stereo not shown) [Example 121, 5-[(2,3-Dichloro-4-fluorophenyl)carbonyl]-6-methyl-1-pyridin-2-yl-4,5,6,7-tetrahydro-1H-[1,2,3]triazolo[4,5-c]pyridine]",−0.2 % control
17,"Cc1nc(-n2nnc3c2CCN(C(=O)c2cccc(C(F)(F)F)c2Cl)C3C)ncc1F (stereo not shown) [Example 230, (2-chloro-3-(trifluoromethyl)phenyl)(1-(5-fluoro-4-methylpyrimidin-2-yl)-4-methyl-6,7-dihydro-1H-[1,2,3]triazolo[4,5-c]pyridin-5(4H)-yl)methanone]",2.9 % control

# Same assay, conditions: test compound 10 μM, LPS 30 ng/ml + 0.5 mM Bz-ATP
row,SMILES,PBMC 10 μM (% control)
1,"Cc1ccnc(-n2nnc3c2CCN(C(=O)c2cccc(C(F)(F)F)c2Cl)[C@H]3C)c1 (single isomer, unassigned) [Example 186, (S*)-(2-chloro-3-(trifluoromethyl)phenyl)(4-methyl-1-(4-methylpyridin-2-yl)-6,7-dihydro-1H-[1,2,3]triazolo[4,5-c]pyridin-5(4H)-yl)methanone]",−0.5 % control
